Experimental findings from ChEMBL document CHEMBL1126472, “Multipurpose receptor ligands: -carboline cholecystokinin antagonists” (Bioorg Med Chem Lett, 1993) are described below.

pIC50: −log10 of the molar value. A value given as a limit tells only on which side of the number the result lay.

The target in one assay is T1, Cholecystokinin receptor type A (Rattus norvegicus, UniProt P30551).
T1 sequence (P30551 whole entry): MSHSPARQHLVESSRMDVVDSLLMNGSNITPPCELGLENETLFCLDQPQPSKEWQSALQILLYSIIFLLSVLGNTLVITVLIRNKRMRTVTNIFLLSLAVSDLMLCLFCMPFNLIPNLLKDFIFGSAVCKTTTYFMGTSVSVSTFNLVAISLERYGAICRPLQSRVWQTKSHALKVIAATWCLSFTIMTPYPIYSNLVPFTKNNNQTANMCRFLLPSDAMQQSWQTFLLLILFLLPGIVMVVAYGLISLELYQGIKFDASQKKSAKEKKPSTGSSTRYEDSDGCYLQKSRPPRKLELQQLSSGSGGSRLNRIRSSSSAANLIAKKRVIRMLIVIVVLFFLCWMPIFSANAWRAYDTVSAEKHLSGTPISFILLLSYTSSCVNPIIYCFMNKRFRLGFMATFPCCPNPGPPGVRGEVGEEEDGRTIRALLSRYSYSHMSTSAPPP
Briefly: Tested for its activity to inhibit the binding of [125I]CCK-33 to Cholecystokinin type A receptor in rat pancreas.
Broadly, the pIC50 is the negative decadic logarithm of the IC50, by convention in mol/L. High values mean a small IC50, low ones a large IC50. On to `Cn1c(C(=O)Nc2cc3c4ccccc4nc-3c[nH]2)cc2ccccc21`, for which the pIC50 is 6.15. On the same count and under the same terms, under `O=C(Nc1cc2c3ccccc3nc-2c[nH]1)c1ccccc1` stands 5.15; under `O=C(Nc1cc2c3ccccc3nc-2c[nH]1)c1ccc(Cl)cc1`, 5.46; under `CN1C(=O)[C@@H](NC(=O)Nc2cc3c4ccccc4nc-3c[nH]2)N=C(c2ccccc2)c2ccccc21`, 6.96. Still for that read-out and setting: under `O=C(Nc1ccc(Cl)cc1)Nc1cc2c3ccccc3nc-2c[nH]1` stands 7.07; under `COC(=O)c1cc2c(cn1)[nH]c1ccccc12` [BETA-CCM], under 4.00. On the same count and under the same terms, under `CN1C(=O)[C@H](NC(=O)Nc2cc3c4ccccc4nc-3c[nH]2)N=C(c2ccccc2)c2ccccc21` stands 7.05; under `O=C(Cc1ccccc1)Nc1cc2c3ccccc3nc-2c[nH]1`, 7.40; under `Nc1cc2c(cn1)[nH]c1ccccc12`, under 4.00. `CN1C(=O)C(NC(=O)Cc2c[nH]c3ccccc23)N=C(c2ccccc2)c2ccccc21` (stereo unspecified): the pIC50 is 6.00. The molecule `O=C(CCc1ccccc1)Nc1cc2c3ccccc3nc-2c[nH]1` had a pIC50 of 6.48. This pIC50 is 0.48 log units higher than that of the molecule before. The same measure, in the same setting: under `O=C(Cc1c[nH]c2ccccc12)Nc1cc2c3ccccc3nc-2c[nH]1` stands 7.62.

Target in a further assay: not listed separately
Briefly: Tested for its activity to inhibit the binding of [125I]gastrin to gastric glands (gastrin) in guinea pig.
Take `CN1C(=O)[C@H](NC(=O)Nc2ccc(Cl)cc2)N=C(c2ccccc2)c2ccccc21`: the pIC50 was 7.92.

The molecule `CN1C(=O)[C@@H](NC(=O)Nc2ccc(Cl)cc2)N=C(c2ccccc2)c2ccccc21` had a pIC50 of 6.27.

Target in the next assay: not listed separately
Briefly: Tested for its activity to inhibit the binding of [125I]CCK-33 to Cholecystokinin type B receptor in guinea pig brain.
`CN1C(=O)[C@H](NC(=O)Nc2ccc(Cl)cc2)N=C(c2ccccc2)c2ccccc21`: the pIC50 was 8.26. Same read-out and setting: under `CN1C(=O)[C@@H](NC(=O)Nc2ccc(Cl)cc2)N=C(c2ccccc2)c2ccccc21` stands 6.39.
